What was measured:
[1] = tested on: autophosphorylated CaMKIIγ in NB4 cells; assay: Western blot of CaMKIIγ autophosphorylation in NB4 cells; format: cell-based, human; details: for activated, autophosphorylated CaMKIIγ level: single agent, ATRA 1 μM, arsenic trioxide 1 uM
Protocol: FIG. 7. KN-62 regulates the differentiation of myeloid leukemia cell lines. (A) Wright Giemsa-stained HL-60 cells either (a) uninduced or treated for five days with (b) KN62 or (c) ATRA. (d) CD11b expression in HL-60 cells after five days exposure to KN62 (5 μM) or ATRA (1 μM). (B) Wright-Giemsa stained NB4 cells treated for five days with KN-62 (5 μM) and ATRA as indicated. […] (C) Cd11b expression of NB4 cells treated for five days with the indicated concentrations of RA and/or KN-62. (D) Western blots with the indicated antibodies were performed on HL60 cell lysates following incubation with KN62 for the indicated period of time. (E) Western blots of NB4 cell lysates following a five day incubation with the indicated compounds.
(§1) FIG. 9. Terminal differentiation/apoptosis of myeloid leukemia cells is associated with decreased CaMKIIγ activation. (A) Lysates from the HL60, NB4 and U937 myeloid cell lines treated with ATRA (1 μM) for the indicated period of time were subjected to Western blots. (B) Lysates from the indicated myeloid cell lines treated for five days with the indicated concentration of ATRA were subjected to Western blots. (C) Lysates from HL60 cells treated with TPA (0.1 μM) for the indicated time were subjected to Western blots. (D) Lysates from NB4 cells treated with arsenic trioxide (1 uM) for the indicated time were subjected to Western blots.
Protein extracts, Western blotting and co-immunoprecipitations. Westerns and co-immunoprecipitations were performed as previously detailed (Si, J., and Collins, S. J., Blood 100:4401-4409 (2002)).
(§2) Antibodies and Western blots. Protein extracts, immunoprecipitations and Western blots were performed as previously detailed (Si J, Collins S J. IL-3-induced enhancement of retinoic acid receptor activity is mediated through Stat5, which physically associates with retinoic acid receptors in an IL-3-dependent manner. Blood 100: 4401-9 (2002)). Antibodies against CaMKI, CaMKIIγ, CaMKIV, c-myc, Stat3, Stat5, calmodulin, as well as the phosphospecific CaMKII (T286, 287) and phosphospecific CaMKI (T177) antibodies were from Santa Cruz Biotechnology. Antibodies against phospho-Stat1 (Ser727), phospho-Stat3 (Ser727 and Tyr 705), phospho-Stat5 (Tyr 694), phospho-p44/42 MAP kinase (Thr202/Tyr 204), p44/42 MAP kinase, phospho-p38 MAP kinase (Thr 180/Tyr 182), phospho-GSK3β (Ser9) were from Cell Signaling Technology. Antibodies against Stat1, GSK3β, β-catenin, PP2Ac, and cyclin D1 were from BD Biosciences.

[2] = tested on: activated CaMKIIγ in U937 cells; assay: Western blot of CaMKIIγ autophosphorylation in U937 cells; format: cell-based, human
Protocol: as §1
(§3) Antibodies and Western blots. Protein extracts, immunoprecipitations and Western blots were performed as previously detailed (Si J, Collins S J. IL-3-induced enhancement of retinoic acid receptor activity is mediated through Stat5, which physically associates with retinoic acid receptors in an IL-3-dependent manner. Blood 100: 4401-9 (2002)). Antibodies against CaMKI, CaMKIIγ, CaMKIV, c-myc, Stat3, Stat5, calmodulin, as well as the phosphospecific CaMKII (T286, 287) and phosphospecific CaMKI (T177) antibodies were from Santa Cruz Biotechnology. […]

[3] = tested on: activated CaMKIIγ in HL60R cells; assay: Western blot of CaMKIIγ autophosphorylation in HL60R cells; format: cell-based, human; details: five days ATRA
Protocol: as §1, §3

[4] = tested on: activated CaMKIIγ in KG1 cells; assay: Western blot of CaMKIIγ autophosphorylation in KG1 cells; format: cell-based, human; details: five days ATRA
Protocol: as §1, §3

MPRO cell line = assay: Granulocytic differentiation of MPRO cell line; format: cell-based; details: single agent; not shown
From the text: Thus the CaMK inhibitor KN-62 not only enhances RAR transcriptional activity but either as a single agent or in combination with relatively low doses of RA can induce/enhance the differentiation of different myeloid leukemia cell lines.

KCL-22 cells = assay: Differentiation of KCL-22 cells; format: cell-based, human; details: preliminary studies; not shown
From the text: (§4) Pharmacological CaMK inhibitors trigger myeloid leukemia cell differentiation. Particularly compelling evidence for the physiological importance of the CaMKII—mediated regulation of RAR activity is our experimental observation that KN-62, a pharmacological inhibitor of the CaMKs, enhances both RAR transcriptional activity (FIG. 1B) and the differentiation of certain myeloid leukemia cell lines (FIG. 7). Acute myelogenous leukemia (AML) is a heterogenous disease, and successful therapy with RA has been generally confined to those leukemias harboring RARα chromosome translocations.

Kasumi cells [5] = assay: Differentiation of Kasumi cells; format: cell-based, human; details: preliminary studies; not shown
From the text: as §4

[6] = tested on: NB4 subclones that are unresponsive to ATRA; assay: Differentiation of ATRA-unresponsive NB4 subclones; format: cell-based, human
From the text: as §4

Kasumi cells [7] = assay: Kasumi proliferation in liquid suspension culture; format: cell-based, human
Protocol: FIG. 11. […] (A) K562 cells were seeded in liquid suspension culture at 5×10^4 cells/ml in the presence or absence of the indicated concentration of compounds, and cell counts were obtained at the indicated time. (B) The indicated myeloid leukemia cell lines were seeded in liquid suspension culture at 5×10^4 cells/ml in the presence or absence of KN93, and cell counts obtained at the indicated time. (C) K562 cells were electroporated with the LXSN expression vector harboring the kinase dead, Lys^43 mutated, truncated CaMKII construct (kdCaMKII) as well as with the control (empty) LXSN vector. The electroporated cells were diluted into 96 well plates in liquid suspension culture in the presence of G418 (1 mg/ml). Following eight days of culture the total number of discrete, actively proliferating G418 resistant colonies within individual wells was determined.
Cell lines. All leukemia cell lines are cultured at 37° in RPMI supplemented with 5% heat-inactivated fetal calf serum.

K562 cells = assay: Western blots of signal transduction pathways in K562 cells; format: cell-based, human; details: K562 cultured in KN93
Protocol: FIG. 12. CaMKII regulates multiple signal transduction pathways in myeloid cells. (A,B) Lysates from K562 cells cultured for the indicated time in KN93 were subjected to Western blots. (C) The K562 cells transduced as described in Materials and Methods with either (i) the doxycycline (DOX) inducible expression vector/transactivator harboring the full length, Lys^43 mutated, kinase dead CaMKIIγ (kdCaMKIIγ (Tet-on)) or (ii) the CaMKII shRNA generating plasmids, were cultured in liquid suspension in the presence or absence of DOX as indicated, and cell counts obtained after 48 hours. (D) Lysates from K562 cells transduced with the indicated vectors were subjected to Western blots utilizing the indicated antibodies. For lanes 2 and 4 doxycycline (DOX) treatment was for two days.
as §2

SMILES: CC1=C(/C=C/C(C)=C/C=C/C(C)=C/C(=O)O)C(C)(C)CCC1 [ATRA, All-trans retinoic acid]
- total CaMKIIγ level [1]: essentially unchanged
- activated, autophosphorylated CaMKIIγ level [1]: marked decrease
- total CaMKIIγ level [2]: essentially unchanged
- activated CaMKIIγ level ([2]; ATRA 1 μM): marked decrease
- activated CaMKIIγ level [3]: not observed
- activated CaMKIIγ level [4]: did not exhibit any decrease

SMILES: CN([C@@H](Cc1ccc(OS(=O)(=O)c2cccc3cnccc23)cc1)C(=O)N1CCN(c2ccccc2)CC1)S(=O)(=O)c1cccc2cnccc12 [KN-62]
- granulocytic differentiation of MPRO (MPRO cell line): enhanced
- differentiation of KCL-22 (KCL-22 cells): does not induce
- differentiation of Kasumi (Kasumi cells [5]): does not induce
- KN62-mediated differentiation of ATRA-unresponsive NB4 subclones [6]: do not observe any
- autophosphorylated CaMKIIγ level ([1]; KN62 combined with relatively low concentrations of RA, five days): reduction
- activated, autophosphorylated CaMKIIγ level [1]: little effect

SMILES: COc1ccc(S(=O)(=O)N(CCO)c2ccccc2CN(C)C/C=C/c2ccc(Cl)cc2)cc1 [KN-93]
- cell proliferation (Kasumi cells [7]): inhibition
- cell viability or morphologic differentiation (Kasumi cells [7]): without any significant effect
- GSK3β Ser9 phosphorylation (K562 cells): marked reduction
- activation (phosphorylation) of p38 (K562 cells): decrease
- activation (phosphorylation) of pMAPK p44/42 (K562 cells): decrease
- activation (phosphorylation) of pStat3 (Y705, S727) (K562 cells): decrease
- activation (phosphorylation) of pStat5 (Y694) (K562 cells): decrease
- c-myc protein level (K562 cells): reduction
- cyclin D1 protein level (K562 cells): reduction
- expression of β-catenin (K562 cells): marked reduction
- total levels of these phosphorylated proteins (K562 cells): not accompanied by any change

Reference: patent publication US20080255244A1, “CaM Kinase II Inhibitor Improves Retinoic Acid Therapy and Inhibits the Proliferation of Myeloid Leukemia Cells” (Fred Hutchinson Cancer Research Center, priority 2007, published 2008)
